Assay results from ChEMBL document CHEMBL2073775, “Caco-2 permeability, P-glycoprotein transport ratios and brain penetration of heterocyclic drugs” (Int J Pharm, 2003).

molecular target: ATP-dependent translocase ABCB1 (Homo sapiens, UniProt P08183); test: TP_TRANSPORTER: transepithelial transport in Caco-2 cells; format: functional, cell-based
Sequence (P08183 whole entry): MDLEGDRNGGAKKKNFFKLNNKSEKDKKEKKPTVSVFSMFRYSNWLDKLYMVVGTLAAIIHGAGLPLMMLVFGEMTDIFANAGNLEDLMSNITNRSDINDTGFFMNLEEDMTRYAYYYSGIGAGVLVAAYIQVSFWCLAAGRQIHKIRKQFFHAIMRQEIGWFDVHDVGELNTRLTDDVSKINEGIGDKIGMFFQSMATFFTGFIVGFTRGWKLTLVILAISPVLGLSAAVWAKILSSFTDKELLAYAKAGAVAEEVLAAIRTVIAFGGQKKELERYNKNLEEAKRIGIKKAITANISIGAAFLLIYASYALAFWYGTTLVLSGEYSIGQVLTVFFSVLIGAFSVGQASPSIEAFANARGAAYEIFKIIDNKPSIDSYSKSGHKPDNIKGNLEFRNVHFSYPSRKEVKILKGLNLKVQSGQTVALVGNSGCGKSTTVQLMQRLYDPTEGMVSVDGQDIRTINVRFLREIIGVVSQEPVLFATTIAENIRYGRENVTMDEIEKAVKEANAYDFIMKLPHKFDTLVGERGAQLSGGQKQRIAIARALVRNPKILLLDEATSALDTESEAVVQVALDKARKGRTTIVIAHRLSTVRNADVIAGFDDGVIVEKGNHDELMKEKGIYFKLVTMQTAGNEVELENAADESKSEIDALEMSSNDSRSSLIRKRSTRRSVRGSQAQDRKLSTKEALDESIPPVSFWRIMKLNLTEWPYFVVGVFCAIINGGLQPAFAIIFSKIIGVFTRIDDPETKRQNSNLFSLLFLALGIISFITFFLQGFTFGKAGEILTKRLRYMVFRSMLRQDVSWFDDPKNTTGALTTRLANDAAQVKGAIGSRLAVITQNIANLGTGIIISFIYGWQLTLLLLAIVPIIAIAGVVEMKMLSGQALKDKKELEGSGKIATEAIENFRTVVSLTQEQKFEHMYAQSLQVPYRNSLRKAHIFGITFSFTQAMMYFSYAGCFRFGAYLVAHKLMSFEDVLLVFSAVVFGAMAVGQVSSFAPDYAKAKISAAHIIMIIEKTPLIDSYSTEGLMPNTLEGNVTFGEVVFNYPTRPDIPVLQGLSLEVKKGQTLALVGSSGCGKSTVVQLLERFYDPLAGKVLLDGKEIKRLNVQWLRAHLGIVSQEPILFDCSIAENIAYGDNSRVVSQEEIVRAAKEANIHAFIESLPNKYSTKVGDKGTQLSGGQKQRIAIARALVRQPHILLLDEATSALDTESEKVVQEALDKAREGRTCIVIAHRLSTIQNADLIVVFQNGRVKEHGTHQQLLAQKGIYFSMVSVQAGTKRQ

Row | Compound | Activity
1 | CS(=O)(=O)O.O=C(CCCN1CCC(=C(c2ccc(F)cc2)c2ccc(F)cc2)CC1)N1CCCC1 | substrate [+]
2 | O=C(O)/C=C/C(=O)O.O=C1CCCN1CCCCN1CCN(c2cc(C(F)(F)F)ccn2)CC1 | substrate [+]
3 | CC1(C)CC(=O)N(CCCCN2CCN(c3ncccn3)CC2)C(=O)C1O.Cl (configuration not stated) | substrate [+]
4 | CN1CCC(=C(c2ccc(F)cc2)c2cc(Cl)cs2)CC1 | substrate [+]
5 | Cl.FC(F)(F)c1ccc(N2CCNCC2)nc1Cl | substrate [+]
6 | COc1cc2cc(C3=NNC(=O)CC3C)sc2cc1OC (configuration not stated) | is not a substrate [-]
7 | C=CCC(N)c1ccccc1-c1noc2ccccc12.Cl (single isomer, unassigned; (-)) | substrate [+]
8 | CC(=O)Nc1ccc(O)cc1 [ACETAMINOPHEN] | is not a substrate [-]
9 | CN(C)CCC=C1c2ccccc2CCc2ccccc21 [AMITRIPTYLINE] | substrate [+]
10 | Cc1cc(=O)n(-c2ccccc2)n1C [ANTIPYRINE] | is not a substrate [-]
11 | Cc1nc2n(c(=O)c1CCN1CCC(c3noc4cc(F)ccc34)CC1)CCCC2 [RISPERIDONE] | substrate [+]
12 | O=C(O)c1ccccc1O [SALICYLIC ACID] | is not a substrate [-]

Results, then the compound that gave them:

Row | Activity | Compound
13 | substrate [+] | CN1CC2c3ccccc3Oc3ccc(Cl)cc3C2C1.O=C(O)/C=C\C(=O)O (racemic) [ASENAPINE MALEATE]
14 | is not a substrate [-] | CC(=O)Oc1ccccc1C(=O)O [ASPIRIN]
15 | is not a substrate [-] | NC(=O)N1c2ccccc2C=Cc2ccccc21 [CARBAMAZEPINE]
16 | substrate [+] | Clc1cccc(Cl)c1N=C1NCCN1 [CLONIDINE]
17 | substrate [+] | CC1(C)CC(=O)N(CCCCN2CCN(c3ncccn3)CC2)C(=O)C1.Cl [GEPIRONE HYDROCHLORIDE]
18 | is not a substrate [-] | CC(C)Cc1ccc(C(C)C(=O)O)cc1 (configuration not stated) [IBUPROFEN]
19 | is not a substrate [-] | COc1ccc2c(c1)c(CC(=O)O)c(C)n2C(=O)c1ccc(Cl)cc1 [INDOMETHACIN]
20 | is not a substrate [-] | OC[C@@H](O)[C@@H](O)[C@H](O)[C@H](O)CO [MANNITOL]
21 | is not a substrate [-] | CNC(=C[N+](=O)[O-])NCCSCc1ccc(CN(C)C)o1 [RANITIDINE]
22 | is not a substrate [-] | PEG 4000
